Read-outs that look alike come from different tables or passages of the source.
What was measured:
[1] = tested on: T. evansi bloodstream form; experiment: Initial screen, T. evansi bloodstream form, Alamar Blue; assay type: cell-based, Trypanosoma evansi; conditions: for activity at 1 µM / inhibition of growth at 1 µM: Trypanosoma evansi; for inhibition of growth at 1 µM: read-out: initial hit T.e
Procedure, shortened: (§1)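 Bloodstream-form T. evansi Antat 3/3 and T. brucei Lister 427 were grown in HMI-11 with 10% FBS at 37 °C. Parasites were plated at 1×10^5 cells/mL with compound at 1 μM (T. evansi) or 2 μM (T. brucei) for 48 h, and growth was read by Alamar Blue relative to 1% DMSO controls (n = 6).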

[2] = tested on: 700022-resistant line of L. mexicana (r22) axenic amastigotes; experiment: EC50 in 700022-resistant L. mexicana (r22) axenic amastigotes; assay type: cell-based, Leishmania mexicana; conditions: for r22 8 weeks RI (resistance index, EC50 in r22/EC50 in WT): 8 weeks of 700022 selection pressure
Protocol: A 700022-resistant line of L. mexicana (r22) was generated using a previously reported method (Figure S3). […] All leishmanicidal sterols identified were assayed against r22 after 8 weeks of 700022 pressure and cross-resistance was found against all four compounds, each with a similar resistance index of between 4–5 (Figure 6c). Following 28 weeks of selection, the morphology of the r22 promastigotes was compared to that of WT (Figure 6d). […] The body area of both promastigotes and amastigotes was also assessed, noting a small (c 20%) decrease in the body area of r22 parasites compared to WT strains (Figure S3).
Figure 6 Comparison between wildtype and 700022-resistant (r22) L. mexicana cell lines. Log concentration versus normalised (compared to untreated control) growth curves for wildtype (WT) and corresponding 700022-selected (r22) L. mexicana (a) promastigotes and (b) axenic amastigotes. Error bars represent upper and lower limits of the StDev (n = 9). […] The resistance index (EC50 in r22/EC50 in WT) are shown for each compound. (d) Scanning electron micrographs of WT and r22 promastigotes illustrating the shortened flagellum in r22 parasites. (e) Analysis of flagellum length in WT and r22 promastigotes (n = 287 of each strain) reported using a box and whisker plot (boxes represents the 25–75th percent distribution with the mean as a horizontal line, whiskers represent the distribution of all values) with a statistically significant difference (Mann–Whitney U test, p-value < 2.2 × 10^−16). […] Error bars represent upper and lower limits of the StDev (n = 9). […] The resistance index (EC50 in r22/EC50 in WT) are shown for each compound. TEXT PRINTED IN THE PICTURE: (c) 700022: 4.1 | (c) 700107: 4.1 | (c) 700136: 5.3 | (c) 700240: 5.3 | (f) 700022: 42.1 | (f) Milt: 17.9 | (f) Pent: 0.75 | (f) AmpB: 1.22 DOUBTS OF THE COPYIST ABOUT THIS PICTURE: Panels c and f: the numbers printed above the bar pairs have no measure or unit printed with them in the picture.
L. mexicana parasites were grown in increasing concentrations of 700022 in a stepwise manner, as previously described. […] A dose response assay of the newly selected promastigotes was completed as stated above, with the exception of the seeding density of 1 × 10^5 cells/mL. At this point, the drug pressure was increased to the concentration of the new EC50 value.

[3] = tested on: T. brucei bloodstream form; experiment: Initial screen, T. brucei bloodstream form, Alamar Blue; assay type: cell-based, Trypanosoma brucei brucei; conditions: for activity at 2 µM / inhibition of growth at 2 µM: Trypanosoma brucei; for initial hit against T. brucei: growth reduced by ≥50%; for inhibition of growth at 2 µM: read-out: initial hit T.b
Procedure, shortened: as §1

T. evansi = experiment: Concentration-response EC50, T. evansi; assay type: cell-based; conditions: Trypanosoma evansi, 48 h, read-out: T. evansi EC50
Source text: (§2) Initial hits from the parasite panel screen were taken forward in log concentration versus normalised response assays to estimate the half maximal effective concentration (EC50) in hit species as well as the half maximal cytotoxic concentrations (CC50) in the human hepatoma cell line HepG2 as a preliminary test for selectivity. Using CC50/EC50 to define the selectivity index (SI), the selectivity for each compound in a defined species compared to a human cell line was estimated and compared to the EC50 (Figure 3).
(§3) EC50 values were determined by serial two-fold dilution of each compound in 96 well plates. Culture conditions and viability assays were as stated for the initial screen, with some exceptions. L. mexicana and L. donovani axenic amastigotes were seeded at 2 × 10^6 cell/s mL, T. brucei and T. evansi were seeded at 2 × 10^5 cells/mL. For cytotoxicity studies, HepG2 cells were seeded at 1 × 10^5 cells/mL, incubated for 48 h and viability was assessed using the Alamar Blue assay [66, 67]. […] Normalised growth and viability data (compared to untreated controls) were plotted against Log10 concentration to estimate EC50 in GraphPad (Prism v6).

P. falciparum Dd2Luc = experiment: Concentration-response EC50, P. falciparum Dd2Luc; assay type: cell-based, Plasmodium falciparum; conditions: 48 h
Source text: as §2, §3

[4] = mean % growth compared to a normalised control with same concentration of DMSO solvent, initial screen, read-out: % growth T. evansi
[5] = Leishmania mexicana, read-out: r22 8 weeks EC50, r22 after 8 weeks of 700022 selection pressure
[6] = mean % growth compared to a normalised control with same concentration of DMSO solvent, initial screen, read-out: % growth T. b. brucei
[7] = Plasmodium falciparum, read-out: P. falciparum Dd2Luc EC50, intraerythrocytic, 48 h
[8] = initial screen, compared to a normalised control with same concentration of DMSO solvent
[9] = read-out: mean % growth, T. evansi, initial screen, compared to a normalised control with same concentration of DMSO solvent
[10] = read-out: mean % growth, T. b. brucei, initial screen, compared to a normalised control with same concentration of DMSO solvent

CC1=CC(O)(CC(C)C2(C)CC=C3C4=CCC5C(C)(C)C(O)CCC5(C)C4CCC32C)OC1=O (stereo not drawn) [Compound 700022]
activity at 1 µM [1, 4]: 70.8%
r22 8 weeks RI (resistance index, EC50 in r22/EC50 in WT) [2]: 4.1
EC50 [2, 5]: 1000 nM
EC50 ([2]; Leishmania mexicana, read-out: r22 28 weeks EC50, r22 after 28 weeks of 700022 selection pressure): 10100 nM
EC50 ([2]; read-out: r22 28 weeks EC50, r22 after 28 weeks of 700022 selection pressure): 10000 nM
activity at 2 µM [3, 6]: 53.5%

CC1OC(OC2C(OC(=O)C3CC[C@@H]4[C@H](C3)OC3(CC(OC(=O)/C=C/c5ccccc5)[C@@H](C)CO3)C43CO3)OC(CO)C(O)C2O)C(O)C(O)C1O (stereo partly drawn) [Compound 700042]
EC50 (T. evansi): 618 nM
EC50 (P. falciparum Dd2Luc; [7]): 280 nM
activity at 1 µM ([1]; read-out: % growth T. evansi, mean % growth compared to a normalised control with same concentration of DMSO solvent, initial screen): 40.2%
inhibition of growth at 1 µM [1]: > 50%
initial hit against T. brucei ([3]; 2 μM): initial hits
activity at 2 µM ([3]; read-out: % growth T. b. brucei, mean % growth compared to a normalised control with same concentration of DMSO solvent, initial screen): 1.6%
inhibition of growth at 2 µM [3]: > 50%

CC1=CC(O)(CC(C)C2(C)CCC3C4=CCC5C(C)(CCC(O)C5(C)C)C4=CCC32C)OC1=O (stereo not drawn) [Compound 700107]
activity at 1 µM [1, 4]: 66.5%
r22 8 weeks RI (resistance index, EC50 in r22/EC50 in WT) [2]: 4.1
EC50 [2, 5]: 1100 nM
activity at 2 µM [3, 6]: 85.2%

CC1=CC(O)(CC(C)C2(C)CC=C3C4=CCC5C(C)(C)C(=O)CCC5(C)C4CCC32C)OC1=O (stereo not drawn) [Compound 700136]
activity at 1 µM [1, 4]: 76.2%
r22 8 weeks RI (resistance index, EC50 in r22/EC50 in WT) [2]: 5.3
EC50 [2, 5]: 1100 nM
activity at 2 µM [3, 6]: 104%

C/C(=C/C(=O)CC(C)C1CCC2(C)C3=CCC4C(C)(C)C(=O)CCC4(C)C3CCC12C)C(=O)O (stereo not drawn) [Compound 700240]
activity at 1 µM [1, 4]: 120%
r22 8 weeks RI (resistance index, EC50 in r22/EC50 in WT) [2]: 5.3
EC50 [2, 5]: 2700 nM
activity at 2 µM [3, 6]: 72.9%

C=C1C(=O)OC2CC(C)C3C=CC(=O)C3(C)C(OC(C)=O)C12 (stereo not drawn) [Compound 701155]
EC50 (T. evansi): 135 nM
EC50 (P. falciparum Dd2Luc; [7]): 1600 nM
inhibition of growth at 1 µM [1]: > 50%
mean % growth, T. evansi [1, 8]: 1.0%
initial hit against T. brucei ([3]; 2 μM): initial hits
mean % growth, T. b. brucei [3, 8]: -0.8%

C=C1C(=O)OC2CC(C)C3C=CC(=O)C3(C)C(OC(=O)C(C)C)C12 (stereo not drawn) [Compound 701157]
EC50 (T. evansi): 191 nM
EC50 (P. falciparum Dd2Luc; [7]): 1800 nM
inhibition of growth at 1 µM [1]: > 50%
activity at 1 µM [1, 9]: -4.3%
initial hit against T. brucei ([3]; 2 μM): initial hits
inhibition of growth at 2 µM [3]: > 50%
activity at 2 µM [3, 10]: -1.8%

C=C1C(=O)OC2CC(C)C3C=CC(=O)C3(C)C(OC(=O)C(C)CC)C12 (stereo not drawn) [Compound 701158]
EC50 (T. evansi): 244 nM
EC50 (P. falciparum Dd2Luc; [7]): ~1000 nM
EC50 (P. falciparum Dd2Luc; read-out: P. falciparum Dd2Luc EC50, intraerythrocytic): 1600 nM
inhibition of growth at 1 µM [1]: > 50%
activity at 1 µM [1, 9]: 0.454%
initial hit against T. brucei ([3]; 2 μM): initial hits
inhibition of growth at 2 µM [3]: > 50%
activity at 2 µM [3, 10]: -1.3%

C=C1C(=O)OC2CC(C)C3C(OC)CC(=O)C3(C)C(OC(=O)C(C)CC)C12 (stereo not drawn) [Compound 701159]
EC50 (P. falciparum Dd2Luc; [7]): 4500 nM
activity at 1 µM ([1]; initial screen, compared to a normalised control with same concentration of DMSO solvent, read-out: mean % growth, T. evansi): 82%
initial hit against T. brucei ([3]; 2 μM): initial hits
activity at 2 µM ([3]; initial screen, compared to a normalised control with same concentration of DMSO solvent, read-out: mean % growth, T. b. brucei): 13.7%
inhibition of growth at 2 µM ([3]; 2 μM, x = initial hit): > 50%

Reference: publication PMC7998250, “Temperate Zone Plant Natural Products—A Novel Resource for Activity against Tropical Parasitic Diseases” (Pharmaceuticals, 2021)
